Assay [1] has as its system Streptococcus pneumoniae 1/1. Nature of the assay: MIC against Streptococcus pneumoniae 1/1. Type of assay: cell-based. The following applies: Table 2, Streptococcus pneumoniae 1/1, trimethoprim- and penicillin-resistant, serotype 6, clinical isolate; for MIC: read-out: MIC Sp1/1.
For assay [2], the system named is Staphylococcus aureus 101. As to the kind of experiment: MIC against Staphylococcus aureus 101. The assay is classed as cell-based. The conditions noted are these: Table 2, Staphylococcus aureus 101, MRSA- and trimethoprim-resistant, clinical isolate; for MIC: read-out: MIC Sa101.
Assay [3] deals with T1, purified DHFR of strain Sp1/1 of Streptococcus pneumoniae (Streptococcus pneumoniae serotype 4, UniProt Q54801).
T1 sequence (Q54801 1-168 I100L): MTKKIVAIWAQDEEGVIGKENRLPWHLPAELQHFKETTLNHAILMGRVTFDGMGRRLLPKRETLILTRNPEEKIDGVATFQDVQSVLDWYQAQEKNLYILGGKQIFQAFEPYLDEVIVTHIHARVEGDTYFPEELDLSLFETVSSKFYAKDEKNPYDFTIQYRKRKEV
Type of assay: biochemical. The conditions noted are these: Table 2; IC50 against purified DHFR of strain Sp1/1.

The target in assay [4] is purified DHFR of strain 157/4696 of Staphylococcus aureus (Staphylococcus aureus, UniProt P13955). Nature of the assay: biochemical.
Sequence of purified DHFR of strain 157/4696 of Staphylococcus aureus (P13955 whole entry): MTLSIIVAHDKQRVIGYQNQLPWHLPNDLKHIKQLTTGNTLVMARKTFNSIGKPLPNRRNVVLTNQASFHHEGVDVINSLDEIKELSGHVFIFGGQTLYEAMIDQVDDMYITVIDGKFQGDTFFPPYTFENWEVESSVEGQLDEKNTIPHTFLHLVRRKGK

Converted amounts (≈) assume the structure as drawn. Read-outs that look alike come from different tables or passages of the source.

Consider `CCOc1cc(Cc2cnc(N)nc2N)cc(OCC)c1-c1ccc(COCC(=O)N2CCCCC2)s1` [Example 03-c, 2-[5-[4-(2,4-Diamino-pyrimidin-5-ylmethyl)-2,6-diethoxy-phenyl]-thionhen-2-ylmethoxy]-1-piperidin-1-yl-ethanone], for which the MIC in assay [1] is 2 µg/mL (≈ 3.8 µM); in assay [2], 8 µg/mL (≈ 15.2 µM). In addition, the figures for the IC50 in assay [3] and in assay [4] were 11 nM and 2000 nM, respectively.

As to `CCOc1cc(Cc2cnc(N)nc2N)cc(OCC)c1-c1cc(C)nc(C)c1` [Example 03-d, 5-[4-(2,6-Dimethyl-pyridin-4-yl)-3,5-diethoxy-benzyl]-pyrimidine-2,4-diamine], the MIC in assay [1] and in assay [2] was 8 µg/mL (≈ 20.3 µM) in each case. The IC50 is 340 nM in assay [3] and 6000 nM in assay [4].

Consider `CCOc1cc(Cc2cnc(N)nc2N)cc(OCC)c1-c1ccc(SC)nc1` [Example 03-e, 5-[3,5-Diethoxy-4-(6-methylsulphanyl-pyridin-3-yl)-benzyl]-pyrimidine-2,4-diamine], for which the figures for the MIC in assay [1] and in assay [2] were 4 µg/mL (≈ 9.72 µM) and 8 µg/mL (≈ 19.4 µM), respectively. Moreover, the IC50 in assay [3] came to 80 nM; in assay [4], 2100 nM.

Take `CCOc1cc(Cc2cnc(N)nc2N)cc(OCC)c1-c1ccc(C#N)cc1` [Example 04-a, 4′-(2,4-Diamino-pyrimidin-5-ylmethyl)-2′,6′-diethoxy-biphenyl-4-carbonitrile]: the values for the MIC in assay [1] and in assay [2] were 4 µg/mL (≈ 10.3 µM) and 8 µg/mL (≈ 20.5 µM), respectively. The IC50 is 82 nM in assay [3] and 2700 nM in assay [4].

As for `CCOc1cc(Cc2cnc(N)nc2N)cc(OCC)c1-c1ccc(CN2CCCC2)c(F)c1` [Example 04-aa, 5-(2,6-Diethoxy-3′-fluoro-4′-pyrrolidin-1-ylmethyl-biphenyl-4-ylmethyl)-pyrimidine-2,4-diamine], the MIC in assay [1] and in assay [2] was 8 µg/mL (≈ 17.2 µM) throughout. In addition, the values for the IC50 in assay [3] and in assay [4] were 330 nM and 1800 nM, respectively.

For the molecule `CCOc1cc(Cc2cnc(N)nc2N)cc(OCC)c1-c1ccc(NC)cc1` [Example 04-ab, 5-(2,6-Diethoxy-4′-methylamino-biphenyl-4-ylmethyl)-pyrimidine-2,4-diamine], the MIC in assay [1] worked out at 4 µg/mL (≈ 10.2 µM); in assay [2], 8 µg/mL (≈ 20.3 µM). Further, the values for the IC50 in assay [3] and in assay [4] were 120 nM and 1400 nM, respectively.

With `CCOc1cc(Cc2cnc(N)nc2N)cc(OCC)c1-c1ccc(CN(C)CCF)cc1` [Example 04-ac, 5-(2,6-Diethoxy-4′-{[N-(2-fluoro-ethyl)-N-methyl-amino]-methyl}-biphenyl-4-ylmethyl)-pyrimidine-2,4-diamine], the MIC in assay [1] stood at 4 µg/mL (≈ 8.82 µM); in assay [2], 8 µg/mL (≈ 17.6 µM). For the same molecule, the IC50 in assay [3] turned out to be 59 nM; in assay [4], 450 nM.

As to `CCOc1cc(Cc2cnc(N)nc2N)cc(OCC)c1-c1ccc(CN(C)CCF)c(F)c1` [Example 04-ad, 5-(2,6-Diethoxy-3′-fluoro-4′-{[N-(2-fluoro-ethyl)-N-methyl-amino]-methyl}-biphenyl-4-ylmethyl)-pyrimidine-2,4-diamine], the MIC in assay [1] stood at 4 µg/mL (≈ 8.48 µM); in assay [2], 8 µg/mL (≈ 17 µM). Moreover, the IC50 in assay [3] was found to be 170 nM; in assay [4], 2700 nM.

Consider `CCOc1cc(Cc2cnc(N)nc2N)cc(OCC)c1-c1cc(C)cc(N)c1` [Example 04-ae, 5-(5′-Amino-2,6-diethoxy-3′-methyl-biphenyl-4-ylmethyl)-pyrimidine-2,4-diamine], for which the MIC in assay [1] and in assay [2] was 8 µg/mL (≈ 20.3 µM) throughout. Moreover, the IC50 turned out to be 19 nM in assay [3] and 1400 nM in assay [4].

As for `CCOc1cc(Cc2cnc(N)nc2N)cc(OCC)c1-c1ccc(CNCCF)cc1` [Example 04-ag, 5-{2,6-Diethoxy-4′-[(2-fluoro-ethylamino)-methyl]-biphenyl-4-ylmethyl}-pyrimidine-2,4-diamine], the MIC in assay [1] and in assay [2] was 8 µg/mL (≈ 18.2 µM) throughout. Also, the results for the IC50 in assay [3] and in assay [4] were 350 nM and 1800 nM, respectively.

`CCOc1cc(Cc2cnc(N)nc2N)cc(OCC)c1-c1ccc(NS(C)(=O)=O)cc1` [Example 04-b, N-[4′-(2,4-Diamino-pyrimidin-5-ylmethyl)-2′,6′-diethoxy-biphenyl-4-yl]-methanesulphonamide]: the MIC in assay [1] came out at 2 µg/mL (≈ 4.37 µM); in assay [2], 8 µg/mL (≈ 17.5 µM). Moreover, the IC50 in assay [3] was determined as 36 nM; in assay [4], 1700 nM.

On to `CCOc1cc(Cc2cnc(N)nc2N)cc(OCC)c1-c1ccc(N)cc1` [Example 04-c, 5-(4′-Amino-2,6-diethoxy-biphenyl-4-ylmethyl)-pyrimidine-2 4-diamine], for which the results for the MIC in assay [1] and in assay [2] were 4 µg/mL (≈ 10.5 µM) and 8 µg/mL (≈ 21.1 µM), respectively. Moreover, the IC50 is 40 nM in assay [3] and 700 nM in assay [4].

As for `CCOc1cc(Cc2cnc(N)nc2N)cc(OCC)c1-c1ccc(CN2CCOCC2)nc1` [Example 04-d, 5-[3,5-Diethoxy-4-(6-morpholin-4-ylmethyl-pyridin-3-yl)-benzyl]-pyrimidine-2,4-diamine], the MIC in assay [1] stood at 4 µg/mL (≈ 8.61 µM); in assay [2], 8 µg/mL (≈ 17.2 µM). Also, the IC50 in assay [3] is 65 nM; in assay [4], 2100 nM.

With `CCOc1cc(Cc2cnc(N)nc2N)cc(OCC)c1-c1ccc(NC(C)=O)c(C)c1` [Example 04-e, N-[4′-(2,4-Diamino-pyrimidin-5-ylmethyl)-2′,6′-diethoxy-3-methyl-biphenyl-4yl]-acetamide], the MIC in assay [1] was 4 µg/mL (≈ 9.18 µM); in assay [2] it was 8 µg/mL (≈ 18.4 µM). Also, the results for the IC50 in assay [3] and in assay [4] were 30 nM and 1800 nM, respectively.

In the case of `CCOc1cc(Cc2cnc(N)nc2N)cc(OCC)c1-c1ccc(N)c(C)c1` [Example 04-f, 5-(4′-Amino-2,6-diethoxy-3′-methyl-biphenyl-4ylmethyl)-pyximidine-2,4-diamine], the results for the MIC in assay [1] and in assay [2] were 2 µg/mL (≈ 5.08 µM) and 4 µg/mL (≈ 10.2 µM), respectively. Further, the IC50 stood at 55 nM in assay [3] and 1500 nM in assay [4].

As to `CCOc1cc(Cc2cnc(N)nc2N)cc(OCC)c1-c1ccc(NC(=O)CN2CCOCC2)cc1` [Example 04-g, N-[4′-(2,4-Diamino-pyrimidin-5-ylmethyl)-2′,6′-diethoxy-biphenyl-4-yl]-2-morpholin-4-yl-acetamide], the MIC in assay [1] stood at 4 µg/mL (≈ 7.9 µM); in assay [2], 8 µg/mL (≈ 15.8 µM). In addition, the IC50 in assay [3] came out at 40 nM; in assay [4], 1100 nM.

In the case of `CCOc1cc(Cc2cnc(N)nc2N)cc(OCC)c1-c1ccc(N)c(C#N)c1` [Example 04-h, 4-Amino-4′-(2,4-diamino-pyrimidin-5-ylmethyl)-2′,6′diethoxy-biphenyl-3-carbonitrile], the MIC in assay [1] amounted to 2 µg/mL (≈ 4.94 µM); in assay [2], 4 µg/mL (≈ 9.89 µM). The IC50 in assay [3] is 42 nM; in assay [4], 1000 nM.

On to `CCOc1cc(Cc2cnc(N)nc2N)cc(OCC)c1-c1ccc(OC)c(N)c1` [Example 04-i, 5-(3′-Amino-2,6-diethoxy-4′-methoxy-biphenyl-4-ylmethyl)-pyrimidine-2,4-diamine], for which the MIC in assay [1] worked out at 4 µg/mL (≈ 9.77 µM); in assay [2] it was 8 µg/mL (≈ 19.5 µM). Further, the IC50 in assay [3] amounted to 43 nM; in assay [4], 1200 nM.

As to `CCOc1cc(Cc2cnc(N)nc2N)cc(OCC)c1-c1ccc(CN2CCOCC2)c(N)c1` [Example 04-j, 5-(3′-Amino-2,6-diethoxy-4′-morpholino-4-ylmethy-biphenyl)-pyrimidine-2,4-diamine], the “MIC Sp1/1” value in assay [1] is 4 µg/mL (≈ 8.36 µM). The “MIC Sa101” value in assay [2] was determined as 8 µg/mL (≈ 16.7 µM). Further, the IC50 in assay [3] worked out at 48 nM; in assay [4] (Table 2, IC50 against purified DHFR of strain 157/4696 (highly trimethoprim-resistant; clinical isolate), read-out: DHFR Sa1), 850 nM.

As for `CCOc1cc(Cc2cnc(N)nc2N)cc(OCC)c1-c1cnc(N2CCOCC2)nc1` [Example 04-k, 5-[3,5-Diethoxy-4-(2-morpholin-4-yl-pyrimidin-5-yl)-benzyl]-pyrimidine-2,4-diamine], the values for the MIC in assay [1] and in assay [2] were 4 µg/mL (≈ 8.86 µM) and 8 µg/mL (≈ 17.7 µM), respectively. Besides, the results for the IC50 in assay [3] and in assay [4] were 95 nM and 10000 nM, respectively.

Regarding `CCOc1cc(Cc2cnc(N)nc2N)cc(OCC)c1-c1ccc(N)c(OC)c1` [Example 04-l, 5-(4′-Amino-2,6-diethoxy-3′-methoxy-biphenyl-4-ylmethyl)-pyrimidine-2,4-diamine], the MIC in assay [1] came to 4 µg/mL (≈ 9.77 µM); in assay [2], 8 µg/mL (≈ 19.5 µM). The IC50 in assay [3] is 82 nM; in assay [4] it was 1900 nM.

Take `CCOc1cc(Cc2cnc(N)nc2N)cc(OCC)c1-c1ccc2ncccc2c1` [Example 04-m, 5-(3,5-Diethoxy-4-quinolin-6-yl-benzyl)-pyrimidine-2,4-diamine]: the MIC in assay [1] and in assay [2] was 8 µg/mL (≈ 19.3 µM) each time. Also, the values for the IC50 in assay [3] and in assay [4] were 72 nM and 1800 nM, respectively.

As to `CCOc1cc(Cc2cnc(N)nc2N)cc(OCC)c1-c1ccc(F)c(N)c1` [Example 04-n, 5-(3′-Amino-2,6-diethozy-4′-fluoro-biphenyl-4-ylmethyl)-pyrimidine-2,4-diamine], the MIC was determined as 2 µg/mL (≈ 5.03 µM) in assay [1] and 8 µg/mL (≈ 20.1 µM) in assay [2]. Also, the IC50 is 68 nM in assay [3] and 1400 nM in assay [4].

Consider `CCOc1cc(Cc2cnc(N)nc2N)cc(OCC)c1-c1ccc(S(N)(=O)=O)cc1` [Example 04-o, 4′-(2,4-Diamino-gyrimidin-5-ylmethyl)-2′,6′-diethoxy-biphenyl-4-sulphonic acid amide], for which the MIC in assay [1] and in assay [2] was 8 µg/mL (≈ 18 µM) in each case. The results for the IC50 in assay [3] and in assay [4] were 60 nM and 1300 nM, respectively.

The values are drawn from US6821980B1, “Substituted 5-benzyl-2,4-diaminopyrimidines” (Basilea Pharmaceutica AG, priority 1999, dated 2004).
